In patent US6720344B2, “Methods and compositions for stimulating osteoblast proliferation or treating malignant cell proliferation and methods for selecting osteoblast proliferation stimulants” (The Board of Regents of the University of Texas System, priority 1996, dated 2004):

How the values were obtained:
BMP-2 promoter = BMP-2 promoter luciferase assay in 2T3 cells (Example 1); type: cell-based, murine
Text: Such activity may be determined using any one of a number of methods known to the skilled artisan, such as by using the luciferase promoter assay described in Example 1. […] Since BMP-2 luciferase promoter constructs were transfected into immortalized murine osteoblasts (2T3 cells), the stimulation of luciferase activity is reasonably correlated to a osteoblast proliferation stimulation activity as recognized by those of ordinary skill in the art.
This technique has been described in the scientific literature [Ghosh-Choudhury, N.; Windle, J; J.; Koop, B. A.; Harris, M. A.; Guerrero, D. L.; Wozney, J. M.; Mundy, G. R.; Harris, S. E.; “Immortalized Murine Osteoblasts Derived from BMP 2-T-Antigen Expressing Transgenic Mice” Endocrinology (1996) 137, 331-339]. […]
Immortalized murine osteoblasts (2T3 cells) containing a bone morphogenetic protein 2 (BMP-2) promoter fragment are isolated from the calvaria of transgenic mice and cloned. […] Employing this BMP-2 promoter assay as an additional screening technique, the ED50 of compounds that stimulate luciferase activity, and, by inference, osteoblast proliferation, can be further assessed. […]
The transfection is carried out by the calcium phosphate precipitation technique. […] Luciferase enzyme activity can be measured in 15 different clonal cell lines. […] Luciferase activity is measured using a kit from Promega and a luminometer.

melting point [°C]	EC50 (BMP-2 promoter; assay conditions of Example 1, stimulation of luciferase activity, read-out: ED50 in the promoter assay) [nM]	Compound	production of luciferase action / BMP-2 promoter activity, in words (BMP-2 promoter; assay for BMP-2 promoter activity, compared to control)
123 to 124		CC(C)Oc1ccc2c(c1)Cc1ccccc1C2=O [anthrone, 3-i-propoxyanthrone]	reduced pharmacological activity
	~100	COc1ccc(C(=O)Nc2nc3ccccc3s2)cc1 [2-(4-methoxybenzoyamino)-1,3-benzthiazole, reference compound]	
